In patent publication US11117899B2, “[1,2,4]triazolo[1,5-c]pyrimidine derivative as A2A receptor inhibitor” (MEDSHINE DISCOVERY INC., priority 2017, dated 2021):
One block for each compound: values may come before it.

Target: T1, Human adenosine A2A receptor (Homo sapiens, UniProt P29274)
T1 construct: host or cells: CHO
Experiment: Human adenosine A2A receptor calcium flux assay
Assay type: cell-based
Details: A2A stable CHO cell strain, antagonist mode against agonist NECA at EC80, FLIPR Fluo-4
Experimental: Human adenosine A2A receptor calcium flux assay
A2A stable cell strain was constructed by Shanghai WuXi PharmaTech, and the host cell was CHO.
Fluo-4 Direct Kit (Invitrogen, Cat. No. F10471). After the fluorescent detection reagent (specifically binding to calcium ions and causing an increase in fluorescence signal) in the kit was incubated with the cells for a suitable period of time, the compound was added to stimulate the cells to cause changes in intracellular calcium flux, thereby causing changes in the fluorescent signal, which can reflect the strength of the agonistic or inhibitory activity of the compound.
F12+10% fetal bovine serum+geneticin 300 ug/ml+blasticidin 2 ug/ml Compound dilution buffer:
Hanks Balanced Salt Buffer (Invitrogen)+20 mM HEPES, configured before each use
The test compounds were dissolved in DMSO to prepare 10 mM stock solutions. The test compounds were diluted to 0.2 mM with DMSO, and the reference compound CGS-15943 was diluted to 0.015 mM with DMSO. Next, 10 points of three-fold serial dilutions were made with ECHO. 900 nl was transferred to the compound plate (Greiner-781280), and 30 ul of compound dilution buffer was added. The final starting concentration of the test compounds was 1 uM and CGS-15943 was 0.075 uM.
Cryopreserved A2A cells were resuscitated, and then resuspended in culture medium to 1×10^6 cells/ml. The suspension was seeded into 384-well polylysine-coated cell plates (Greiner-781946) at 20 μl/well and incubated overnight in a 5% CO2 incubator at 37° C.
The cell plate prepared the day before was taken out from the incubator, and 20 ul of 2× Fluo-4 Direct™ buffer was added to each well. The plate was incubated for 50 minutes in a 5% CO2 incubator at 37° C. and allowed to stand at room temperature for 10 minutes.
Dilution of agonist NECA: 10 points of three-fold serial dilutions were made with Echo for NECA from a starting concentration of 0.15 mM. 900 nL was then transferred to the corresponding compound plate; and then 30 μl of compound dilution buffer was added to the corresponding compound plate. The final starting concentration was 750 nM.
FLIPR instrument software was run. According to the programmed procedure, 10 ul of compound dilution buffer was added to the cell plate and the fluorescence signal was read. 10 ul of the agonist reference compound at the indicated concentration was then added to the cell plate and the fluorescent signal was read. After reading, the data was exported by the “Max-Min”, “Read 90 to Maximum allowed” method in the software, and the EC80 of the A2A cell line was calculated. The agonist was prepared at a concentration of 6× EC80. A 6× EC80 concentration of a reference compound agonist of the corresponding cells was prepared with a buffer solution, and added at 30 ul/well to the corresponding compound plate for use.
FLIPR instrument software was run. According to the programmed procedure, 10 μl of the test compounds and reference compound at an indicated concentration was added to the cell plate and the fluorescence signal was read. 10 ul of the reference compound agonist at a concentration of 6× EC80 was then added to the cell plate and the fluorescent signal was read. For the agonist detection of the compounds, the data was exported by the “Max-Min”, “Read 1 to 90” method in the software. For the antagonist detection of the compound, the data was exported by the “Max-Min”, “Read 90 to Maximum allowed” method in the software. Data were analyzed by GraphPad Prism 5.0 and the IC50 values of the test compounds were calculated.

T1 sequence (P29274 whole entry): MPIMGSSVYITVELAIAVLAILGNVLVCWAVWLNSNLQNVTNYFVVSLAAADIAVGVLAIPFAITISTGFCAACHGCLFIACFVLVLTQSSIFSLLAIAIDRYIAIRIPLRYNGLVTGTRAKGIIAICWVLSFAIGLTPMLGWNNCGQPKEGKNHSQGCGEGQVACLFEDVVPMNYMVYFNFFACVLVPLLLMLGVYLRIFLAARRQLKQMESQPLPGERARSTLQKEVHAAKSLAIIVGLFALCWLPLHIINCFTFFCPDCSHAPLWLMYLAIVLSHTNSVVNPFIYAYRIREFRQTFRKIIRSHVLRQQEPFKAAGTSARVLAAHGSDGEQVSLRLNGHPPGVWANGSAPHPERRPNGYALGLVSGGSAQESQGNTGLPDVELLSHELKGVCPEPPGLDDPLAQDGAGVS

IC50: 1.4 nM
Structure (SMILES): Cc1cc(-c2c(-c3ccccc3)nc(N)n3nc(CC4CC4)nc23)cc(C)n1 [Example C-9]

IC50: 38.9 nM
Structure (SMILES): CCc1nc2c(-c3ccc4nn[nH]c4c3)c(-c3ccccc3OC)nc(N)n2n1 [Example C-32]

IC50: 0.74 nM
Structure (SMILES): Cc1cc(-c2c(-c3ccccc3)nc(N)n3nc(C)nc23)cc(C)n1 [Example C-6]

IC50: 4.13 nM
Structure (SMILES): CCc1nc2c(-c3cc(C)nc(C(F)(F)F)c3)c(-c3ccccc3F)nc(N)n2n1 [Example C-35]

IC50: 1.82 nM
Structure (SMILES): Cc1cc(-c2c(-c3ccccc3)nc(N)n3nc(C(=O)O)nc23)cc(C(F)(F)F)n1 [Example C-80]

IC50: 0.45 nM
Structure (SMILES): CCc1nc2c(-c3cc(C)nc(C)c3)c(-c3ccccc3)nc(N)n2n1 [Example C-8]

IC50: 6.84 nM
Structure (SMILES): CC(C)(O)c1nc2c(-c3cc(Cl)nc(C(F)(F)F)c3)c(-c3ccc(F)cc3)nc(N)n2n1 [Example C-77]

IC50: 54.3 nM
Structure (SMILES): COCCOCc1nc2c(-c3cc(C)nc(Cl)c3)c(-c3ccc(F)cc3)nc(N)n2n1 [Example C-69]

IC50: 0.59 nM
Structure (SMILES): Cc1cc(-c2c(-c3ccc(F)cc3)nc(N)n3nc(CO[C@H]4CCOC4)nc23)cc(Cl)n1 [Example C-70]

IC50: 44.5 nM
Structure (SMILES): Cc1cc(-c2c(-c3ccc(F)cc3)nc(N)n3nc(C(F)(F)F)nc23)cc(C(F)(F)F)n1 [Example C-40]

IC50: 1.02 nM
Structure (SMILES): COCc1nc2c(-c3cc(C)nc(C(F)(F)F)c3)c(-c3ccccc3)nc(N)n2n1 [Example C-13]

IC50: 0.84 nM
Structure (SMILES): Cc1cc(-c2c(-c3ccc(F)cc3)nc(N)n3nc(CN(C)C)nc23)cc(Cl)n1 [Example C-65]

IC50: 1.2 nM
Structure (SMILES): Cc1cc(-c2c(-c3ccccc3)nc(N)n3nc(CNC4CC4)nc23)cc(C)n1 [Example C-20]

IC50: 2.63 nM
Structure (SMILES): Nc1nc(-c2ccccc2)c(-c2ccc3[nH]nnc3c2)c2nc(COCc3ccccc3)nn12 [Example C-23]

IC50: 13.6 nM
Structure (SMILES): Cc1cc(-c2c(-c3ccc(C)o3)nc(N)n3nc(C(F)(F)F)nc23)cc(C(F)(F)F)n1 [Example C-47]

IC50: 50 nM
Structure (SMILES): Cc1nc2c(-c3ccc4[nH]nnc4c3)c(-c3ccc(F)cc3F)nc(N)n2n1 [Example C-49]

IC50: 4.68 nM
Structure (SMILES): CCc1nc2c(-c3ccc4nn[nH]c4c3)c(-c3ccccc3F)nc(N)n2n1 [Example C-37]

IC50: 0.53 nM
Structure (SMILES): Cc1cc(-c2c(-c3ccccc3)nc(N)n3nc(C)nc23)cc(C(F)(F)F)n1 [Example C-5]

IC50: 7.73 nM
Structure (SMILES): Cc1cc(-c2c(-c3ccc(F)cc3F)nc(N)n3nc(CO)nc23)cc(C(F)(F)F)n1 [Example C-53]

IC50: 14.1 nM
Structure (SMILES): COc1ccccc1-c1nc(N)n2nc(C(F)(F)F)nc2c1-c1cc(C)nc(C(F)(F)F)c1 [Example C-31]

IC50: 0.67 nM
Structure (SMILES): Cc1cc(-c2c(-c3ccc(F)cc3)nc(N)n3nc(CO)nc23)cc(Cl)n1 [Example C-44]

IC50: 0.68 nM
Structure (SMILES): COCc1nc2c(-c3cc(C)nc(C)c3)c(-c3ccccc3)nc(N)n2n1 [Example C-14]

IC50: 1.35 nM
Structure (SMILES): CCc1nc2c(-c3cc(C)nc(C(F)(F)F)c3)c(-c3ccccc3)nc(N)n2n1 [Example C-7]

IC50: 1.77 nM
Structure (SMILES): COc1ccccc1Cc1nc2c(-c3cc(C)nc(C)c3)c(-c3ccccc3)nc(N)n2n1 [Example C-16]

IC50: 0.78 nM
Structure (SMILES): Cc1cc(-c2c(-c3ccccc3)nc(N)n3nc(C4CC4)nc23)cc(C)n1 [Example C-11]

IC50: 16.9 nM
Structure (SMILES): N#Cc1nc2c(-c3cc(Cl)nc(C(F)(F)F)c3)c(-c3ccc(F)cc3)nc(N)n2n1 [Example C-79]

IC50: 0.83 nM
Structure (SMILES): Cc1cc(-c2c(-c3ccc(F)cc3)nc(N)n3nc(C#N)nc23)cc(C)n1 [Example C-62]

IC50: 10.1 nM
Structure (SMILES): Nc1nc(-c2ccc(F)cc2)c(-c2ccc3[nH]nnc3c2)c2nc(C(F)(F)F)nn12 [Example C-42]

IC50: 0.77 nM
Structure (SMILES): Cc1cc(-c2c(-c3ccc(F)cc3)nc(N)n3nc(C(C)(C)O)nc23)cc(Cl)n1 [Example C-78]

IC50: 0.82 nM
Structure (SMILES): Cc1cc(-c2c(-c3ccccc3)nc(N)n3nc(COCc4ccccc4)nc23)cc(C)n1 [Example C-12]

IC50: 11.3 nM
Structure (SMILES): Cc1ccc(-c2nc(N)n3nc(C(F)(F)F)nc3c2-c2ccc3[nH]nnc3c2)o1 [Example C-48]

IC50: 5.61 nM
Structure (SMILES): Cc1cc(-c2c(-c3ccc(F)cc3)nc(N)n3nc(C#N)nc23)cc(C(F)(F)F)n1 [Example C-76]

IC50: 0.79 nM
Structure (SMILES): Cc1cc(-c2c(-c3ccc(C)o3)nc(N)n3nc(CO)nc23)cc(C(F)(F)F)n1 [Example C-66]

IC50: 0.86 nM
Structure (SMILES): Cc1cc(-c2c(-c3ccc(F)cc3)nc(N)n3nc(CO)nc23)cc(C)n1 [Example C-55]

IC50: 0.36 nM
Structure (SMILES): Cc1cc(-c2c(-c3ccn(C)n3)nc(N)n3nc(C)nc23)cc(C(F)(F)F)n1 [Example C-64]

IC50: 1.5 nM
Structure (SMILES): Nc1nc(-c2ccccc2)c(-c2ccc3[nH]nnc3c2)c2nc(C(F)(F)F)nn12 [Example C-29]

IC50: 1.75 nM
Structure (SMILES): Cc1cc(-c2c(-c3ccccc3F)nc(N)n3nc(CO)nc23)cc(C(F)(F)F)n1 [Example C-52]

Second part, the compound before the results:

Structure (SMILES): COc1ccc(-c2c(-c3ccccc3)nc(N)n3ncnc23)cc1Cl [Example B-3]
IC50: 9.92 nM

Structure (SMILES): CCc1cc(-c2c(-c3ccccc3)nc(N)n3ncnc23)cc(C(F)(F)F)n1 [Example B-32]
IC50: 2.83 nM

Structure (SMILES): COc1ccccc1-c1nc(N)n2ncnc2c1-c1cc(C)nc(C)c1 [Example A-27]
IC50: 4.38 nM

Structure (SMILES): COc1ccccc1-c1nc(N)n2ncnc2c1-c1ccc2nn[nH]c2c1 [Example A-30]
IC50: 20.4 nM

Structure (SMILES): COc1c(F)cc(F)cc1-c1nc(N)n2ncnc2c1-c1cc(Cl)nc(C(F)(F)F)c1 [Example A-33]
IC50: 15.3 nM

Structure (SMILES): Nc1nc(-c2ccccc2)c(-c2ccc(O)c(C(F)(F)F)c2)c2ncnn12 [Example B-13]
IC50: 0.71 nM

Structure (SMILES): Cc1cc(Cl)cc(-c2c(-c3ccccc3)nc(N)n3ncnc23)c1 [Example B-26]
IC50: 14.8 nM

Structure (SMILES): COc1ccccc1-c1nc(N)n2ncnc2c1-c1cc(Cl)nc(C(F)(F)F)c1 [Example A-31]
IC50: 1.25 nM

Structure (SMILES): Nc1nc(-c2ccccc2)c(-c2cc(Cl)c(O)c(Cl)c2)c2ncnn12 [Example B-15]
IC50: 0.44 nM

Structure (SMILES): Cc1cc(-c2c(-c3ccncc3)nc(N)n3ncnc23)cc(C(F)(F)F)n1 [Example A-11]
IC50: 3.87 nM

Structure (SMILES): Cc1cc(-c2c(-c3ccc(F)cc3)nc(N)n3ncnc23)cc(C(F)(F)F)n1 [Example A-15]
IC50: 0.38 nM

Structure (SMILES): Cc1cc(-c2c(-c3ccn(C)n3)nc(N)n3ncnc23)cc(C(F)(F)F)n1 [Example A-21]
IC50: 0.9 nM

Structure (SMILES): Nc1nc(-c2ccccc2)c(-c2ccc(O)c(Cl)c2)c2ncnn12 [Example B-4]
IC50: 0.14 nM

Structure (SMILES): Nc1nc(-c2ccccc2)c(-c2ccc3[nH]ncc3c2)c2ncnn12 [Example B-7]
IC50: 0.17 nM

Structure (SMILES): COc1cc(-c2c(-c3ccccc3)nc(N)n3ncnc23)ccn1 [Example B-27]
IC50: 0.28 nM

Structure (SMILES): COc1cc(-c2c(-c3ccccc3)nc(N)n3ncnc23)cc(C)n1 [Example B-29]
IC50: 0.11 nM

Structure (SMILES): Cc1cc(-c2c(-c3ccc(F)cc3F)nc(N)n3ncnc23)cc(C)n1 [Example A-26]
IC50: 0.87 nM

Structure (SMILES): COc1ccc(-c2nc(N)n3ncnc3c2-c2cc(C)nc(C(F)(F)F)c2)cc1 [Example A-6]
IC50: 1.04 nM

Structure (SMILES): Cc1cc(-c2c(-c3ccc(C#N)cc3)nc(N)n3ncnc23)cc(C(F)(F)F)n1 [Example A-14]
IC50: 4.07 nM

Structure (SMILES): Cc1cc(-c2c(-c3nccs3)nc(N)n3ncnc23)cc(C(F)(F)F)n1 [Example A-8]
IC50: 23.9 nM

Structure (SMILES): COc1cc(F)ccc1-c1nc(N)n2ncnc2c1-c1ccc2nn[nH]c2c1 [Example A-29]
IC50: 37.2 nM

Structure (SMILES): Nc1nc(-c2ccccc2)c(-c2cc(C3CC3)nc(C(F)(F)F)c2)c2ncnn12 [Example B-23]
IC50: 50.5 nM

Structure (SMILES): COc1cc(F)ccc1-c1nc(N)n2ncnc2c1-c1cc(C)nc(C)c1 [Example A-24]
IC50: 4.9 nM

Structure (SMILES): Nc1nc(-c2ccccc2)c(-c2ccc3ncccc3c2)c2ncnn12 [Example B-16]
IC50: 0.14 nM

Structure (SMILES): Nc1nc(-c2ccccc2)c(-c2ccc3[nH]cnc3c2)c2ncnn12 [Example B-8]
IC50: 0.44 nM

Structure (SMILES): Cc1cc(-c2c(-c3cc(F)cc(F)c3)nc(N)n3ncnc23)cc(C(F)(F)F)n1 [Example A-5]
IC50: 0.83 nM

Structure (SMILES): Cc1cc(-c2c(-c3ccccc3F)nc(N)n3ncnc23)cc(C(F)(F)F)n1 [Example A-17]
IC50: 1.3 nM
